# Values of other authors in PubChem BioAssay AID1259409 (Chemical Carcinogenesis Research Information System (CCRIS), 2018).
# Where “and” joins values, the source holds several entries; their conditions need not be identical. Identical values can stand only once.
# Tested on: rodent chemically induced tumor inhibition, incidence and multiplicity
# Assay: CCRIS tumor inhibitor studies
structure (smiles),measurement,setting,value
COc1cc(/C=C/C(=O)O)ccc1O,"tumour outcome (control, treated, inhibition, significance)","Carcinogen: 4-NITROQUINOLINE-1-OXIDE [56-57-5], Dose [Inhibitor]: 500 PPM IN DIET FOR 7 WK BEGINNING 1 WK PRIOR TO FIRST CARCINOGEN DOSE (STUDY DURATION: 32 WK), Route [Inhibitor]: ORAL, Species: RAT, Strain/Sex: F344/MALE, Target Tissue: Type of Lesion: TONGUE: PAPILLOMA OR CARCINOMA, Dose [Carcinogen]: 20 PPM IN DRINKING WATER FOR 5 WK (STUDY DURATION: 32 WK), Promoter: NONE","9/15 (60%), 3/14 (21%), 65%, p<0.05"
same,"tumour outcome (control, treated, inhibition, significance)","Carcinogen: 4-NITROQUINOLINE-1-OXIDE, 56-57-5, Dose [Inhibitor]: 0, 500 PPM IN DIET FOR 7 WK BEGINNING 1 WK PRIOR TO START OF CARCINOGEN TREATMENT (STUDY DURATION: 32 WK), Route [Inhibitor]: ORAL, Species: RAT, Strain/Sex: F344/MALE, Target Tissue: Type of Lesion: TONGUE: PAPILLOMA, Dose [Carcinogen]: 20 PPM IN DRINKING WATER FOR 5 WK, Promoter: NONE USED","1/15 (7%), 2/14 (14%), -100%, not significant"
same,"tumour outcome (control, treated, inhibition, significance)","Carcinogen: 7,12-DIMETHYLBENZ[A]ANTHRACENE, 57-97-6, Dose [Inhibitor]: 0, 5 MG IN 200 µL ACETONE 2/WK BEGINNING 10 D POST CARCINOGEN DOSE APPLIED 30-40 MIN PRIOR TO EACH PROMOTER DOSE (STUDY, Route [Inhibitor]: DERMAL, Species: MOUSE, Strain/Sex: ICR/FEMALE, Target Tissue: Type of Lesion: SKIN: PAPILLOMA, Dose [Carcinogen]: 200 NMOL IN 200 µL ACETONE ONCE, Promoter: 12-O-TETRADECANOYLPHORBOL-13-ACETATE, 16561-29-8","100%, 94%, 6%, not significant and 100%, 65%, 35%, not calculated"
same,"tumour outcome (control, treated, inhibition, significance)","Carcinogen: 7,12-DIMETHYLBENZ[A]ANTHRACENE, 57-97-6, Dose [Inhibitor]: 10 UMOL IN 200 µL ACETONE/DMSO (90:10) 2/WK FOR 19 WK BEGINNING 1 WK POST CARCINOGEN DOSE (STUDY DURATION: 20 WK), Route [Inhibitor]: DERMAL, Species: MOUSE, Strain/Sex: CD-1/FEMALE, Target Tissue: Type of Lesion: SKIN: PAPILLOMA, Dose [Carcinogen]: 200 NMOL IN 200 µL ACETONE ONCE, Promoter: 12-O-TETRADECANOYLPHORBOL-13-ACETATE, 16561-29-8","68%, 64%, 6%, not calculated"
same,"tumour outcome (control, treated, inhibition, significance)","Carcinogen: 7,12-DIMETHYLBENZ[A]ANTHRACENE, 57-97-6, Dose [Inhibitor]: 50 UMOL IN 200 µL ACETONE/DMSO (90:10) 2/WK FOR 19 WK BEGINNING 1 WK POST CARCINOGEN DOSE (STUDY DURATION: 20 WK), Route [Inhibitor]: DERMAL, Species: MOUSE, Strain/Sex: CD-1/FEMALE, Target Tissue: Type of Lesion: SKIN: PAPILLOMA, Dose [Carcinogen]: 200 NMOL IN 200 µL ACETONE ONCE, Promoter: 12-O-TETRADECANOYLPHORBOL-13-ACETATE, 16561-29-8","68%, 13%, 81%, not calculated"
same,"tumour outcome (control, treated, inhibition, significance)","Carcinogen: AZOXYMETHANE [25843-45-2], Dose [Inhibitor]: 0, 250 PPM IN DIET FOR 12 WK (STUDY DURATION: 35 WK), Route [Inhibitor]: ORAL, Species: RAT, Strain/Sex: F344/MALE, Target Tissue: Type of Lesion: INTESTINE: TUMOR, Dose [Carcinogen]: 15 MG/KG 3X/WK FOR 12 WK (STUDY DURATION: 35 WK), Promoter: NONE","64%, 32%, 50%, p<0.05"
same,"tumour outcome (control, treated, inhibition, significance)","Carcinogen: AZOXYMETHANE [25843-45-2], Dose [Inhibitor]: 0, 250 PPM IN DIET FOR 12 WK (STUDY DURATION: 35 WK), Route [Inhibitor]: ORAL, Species: RAT, Strain/Sex: F344/MALE, Target Tissue: Type of Lesion: SMALL INTESTINE: TUMOR, Dose [Carcinogen]: 15 MG/KG 3X/WK FOR 12 WK (STUDY DURATION: 35 WK), Promoter: NONE","18%, 5%, 72%, not significant"
same,"tumour outcome (control, treated, inhibition, significance)","Carcinogen: AZOXYMETHANE [25843-45-2], Dose [Inhibitor]: 0, 250 PPM IN DIET FOR 23 WK BEGINNING POST LAST CARCINOGEN DOSE (STUDY DURATION: 35 WK), Route [Inhibitor]: ORAL, Species: RAT, Strain/Sex: F344/MALE, Target Tissue: Type of Lesion: INTESTINE: TUMOR, Dose [Carcinogen]: 15 MG/KG 3X/WK FOR 12 WK (STUDY DURATION: 35 WK), Promoter: NONE","64%, 41%, 36%, p<0.05"
same,"tumour outcome (control, treated, inhibition, significance)","Carcinogen: AZOXYMETHANE [25843-45-2], Dose [Inhibitor]: 0, 250 PPM IN DIET FOR 23 WK BEGINNING POST LAST CARCINOGEN DOSE (STUDY DURATION: 35 WK), Route [Inhibitor]: ORAL, Species: RAT, Strain/Sex: F344/MALE, Target Tissue: Type of Lesion: LARGE INTESTINE: TUMOR, Dose [Carcinogen]: 15 MG/KG 3X/WK FOR 12 WK (STUDY DURATION: 35 WK), Promoter: NONE","11%, 36%, -227%, not significant"
same,"tumour outcome (control, treated, inhibition, significance)","Carcinogen: AZOXYMETHANE [25843-45-2], Dose [Inhibitor]: 0, 250 PPM IN DIET FOR 23 WK BEGINNING POST LAST CARCINOGEN DOSE (STUDY DURATION: 35 WK), Route [Inhibitor]: ORAL, Species: RAT, Strain/Sex: F344/MALE, Target Tissue: Type of Lesion: SMALL INTESTINE: TUMOR, Dose [Carcinogen]: 15 MG/KG 3X/WK FOR 12 WK (STUDY DURATION: 35 WK), Promoter: NONE","18%, 18%, 0%, not significant"
same,"tumour outcome (control, treated, inhibition, significance)","Carcinogen: AZOXYMETHANE [25843-45-2], Dose [Inhibitor]: 0, 500 PPM IN DIET FOR 12 WK (STUDY DURATION: 35 WK), Route [Inhibitor]: ORAL, Species: RAT, Strain/Sex: F344/MALE, Target Tissue: Type of Lesion: INTESTINE: TUMOR, Dose [Carcinogen]: 15 MG/KG 3X/WK FOR 12 WK (STUDY DURATION: 35 WK), Promoter: NONE","64%, 32%, 50%, p<0.05"
same,"tumour outcome (control, treated, inhibition, significance)","Carcinogen: AZOXYMETHANE [25843-45-2], Dose [Inhibitor]: 0, 500 PPM IN DIET FOR 12 WK (STUDY DURATION: 35 WK), Route [Inhibitor]: ORAL, Species: RAT, Strain/Sex: F344/MALE, Target Tissue: Type of Lesion: LARGE INTESTINE: TUMOR, Dose [Carcinogen]: 15 MG/KG 3X/WK FOR 12 WK (STUDY DURATION: 35 WK), Promoter: NONE","11%, 27%, -146%, not significant"
same,"tumour outcome (control, treated, inhibition, significance)","Carcinogen: AZOXYMETHANE [25843-45-2], Dose [Inhibitor]: 0, 500 PPM IN DIET FOR 12 WK (STUDY DURATION: 35 WK), Route [Inhibitor]: ORAL, Species: RAT, Strain/Sex: F344/MALE, Target Tissue: Type of Lesion: SMALL INTESTINE: TUMOR, Dose [Carcinogen]: 15 MG/KG 3X/WK FOR 12 WK (STUDY DURATION: 35 WK), Promoter: NONE","18%, 5%, 72%, not significant"
same,"tumour outcome (control, treated, inhibition, significance)","Carcinogen: AZOXYMETHANE [25843-45-2], Dose [Inhibitor]: 0, 500 PPM IN DIET FOR 23 WK BEGINNING POST LAST CARCINOGEN DOSE (STUDY DURATION: 35 WK), Route [Inhibitor]: ORAL, Species: RAT, Strain/Sex: F344/MALE, Target Tissue: Type of Lesion: INTESTINE: TUMOR, Dose [Carcinogen]: 15 MG/KG 3X/WK FOR 12 WK (STUDY DURATION: 35 WK), Promoter: NONE","64%, 41%, 36%, not significant"
